Experimental data taken from patent US20180200257A1, “METHODS FOR THE TREATMENT OF INFLAMMATORY DISORDERS” (Galapagos NV, priority 2015, published 2018).

System: subjects with moderately to severely active RA who have an inadequate response to methotrexate (MTX)
Test: Study 1 (add-on to MTX) - DAS28(CRP) scores
Assay type: in vivo, human
Parameters: key to DAS28(CRP) mean CFB (LOCF): change from baseline in DAS28(CRP) score (joints, CRP, 0-100 VAS)
Description: Double-blind, placebo-controlled add on study in subjects with moderately to severely active RA who have an inadequate response to methotrexate (MTX) (oral or parenteral).
595 subjects randomized to one of 6 dose regimens of Compound 1 (dosed as [Compound 1:HCl:3H2O]) (3 dose levels administered either once or twice daily) or placebo on top of each subject's stable dose of MTX.
Compound 1 (dosed as [Compound 1:HCl:3H2O]) is dosed for twelve weeks once daily (q.d.) (50 mg, 100 mg or 200 mg) or twice daily (b.i.d.) (25 mg, 50 mg or 100 mg); or placebo.
At Week 12, the subjects on placebo who have not achieved 20% improvement in swollen joint count (SJC66) and tender joint count (TJC68) are re-randomized automatically to receive Compound 1 (dosed as a [Compound 1:HCl:3H2O]) either at 100 mg q.d. or 50 mg b.i.d. doses in a blinded fashion; subjects on 50 mg q.d. who have not achieved 20% improvement in SJC66 and TJC68 will be assigned to 100 mg q.d. and subjects on 25 mg b.i.d. that have not achieved a 20% improvement in SJC66 and TJC68 will be assigned to 50 mg b.i.d. Subjects who switch treatment at week 12 are handled as if they discontinued at week 12 for the purpose of statistical analysis, whereas subjects in the other groups will maintain their randomized treatment until Week 24.
The (DAS28(CRP)) is a system developed and validated by the European League Against Rheumatism (EULAR) to measure the progress and improvement of rheumatoid arthritis and has been extensively validated (Wells et al., 2008). The DAS28(CRP) scoring includes a 28 tender and swollen joint count, CRP measurement from blood analysis, and a general health assessment on a visual analog scale (Fransen et al., 2003).
DAS28(CRP) values range from 2.0 to 10.0, and more particularly reflect the following status: • Remission: DAS28(CRP) ≤2.6 • Low Disease activity: 2.6 <DAS28(CRP) ≤3.2 • Moderate Disease Activity: 3.2 <DAS28(CRP) ≤5.1 • High Disease Activity: DAS28(CRP) >5.1
In practice, the DAS28(CRP) measurement involves the evaluation 28 different joints including in the measurement (proximal interphalangeal joints (10 joints), metacarpophalangeal joints (10), wrists (2), elbows (2), shoulders (2), and knees (2)). When looking at these joints, both the number of joints with tenderness upon touching and swelling are counted.
Secondly, C-reactive protein level is measured.
Finally, the patient makes a subjective assessment of disease activity during the preceding 7 days on a scale between 0 and 100, where 0 is “no activity” and 100 is “highest activity possible”.
The DAS28(CRP) score is then calculated as follows:
Firstly, the patient is asked to make a vertical mark on a 100 mm Visual Analog Scale (VAS) corresponding to their general health or global disease activity on a touch screen to measure the VAS value, which is used in the formula below.
Secondly, a swollen and tender joint examination is then performed on the patient. The swollen and tender joints are recorded. From this examination are obtained the total amount of swollen joints (SJC) and the total amount of tender joints (TJC), which are used in the formula below.
Thirdly, C-reactive protein (CRP) levels are measured.
Finally, the values obtained above (VAS, TJC28, SJC28, and CRP) are computed into the following Formula to obtain the DAS28(CRP) score.
DAS28(CRP)=0.56*√{square root over (TJC28)}+0.28√{square root over (SJC28)}+[…] ln(CRP+1)+0.014*VAS
The improvement (decreases) in the DAS28(CRP) scores for each patient group at weeks 1, 2, 4, 8 and 12 is shown in Table LXXXVII and Table LXXXVIII below, together with the Hommel-corrected p-value for the pairwise comparisons of each group with placebo.
The number of subjects (N) provided in each groups corresponds to the number of subjects starting the study in each group, and the DAS28 (CRP) data reported below corresponds to the responding subjects continuing for the entire 24 weeks on their initial treatment course.

O=C(Nc1nc2cccc(-c3ccc(CN4CCS(=O)(=O)CC4)cc3)n2n1)C1CC1 [Compound 1, cyclopropanecarboxylic acid {5-[4-(1,1-dioxo-thiomorpholin-4-ylmethyl)-phenyl]-[1,2,4]triazolo[1,5-a]pyridin-2-yl}-amide]
DAS28(CRP) mean CFB (LOCF) (50 mg q.d., week 1, 12 weeks results): −0.65 | DAS28(CRP) mean CFB (LOCF) (50 mg q.d., week 1, 24 weeks results): −0.65 | DAS28(CRP) mean CFB (LOCF) (50 mg q.d., week 2, 12 weeks results): −0.94 | DAS28(CRP) mean CFB (LOCF) (50 mg q.d., week 2, 24 weeks results): −0.94 | DAS28(CRP) mean CFB (LOCF) (50 mg q.d., week 4, 12 weeks results): −1.28 | DAS28(CRP) mean CFB (LOCF) (50 mg q.d., week 4, 24 weeks results): −1.28 | DAS28(CRP) mean CFB (LOCF) (50 mg q.d., week 12, 12 weeks results): −1.75 | DAS28(CRP) mean CFB (LOCF) (50 mg q.d., week 12, 24 weeks results): −1.75 | DAS28(CRP) mean CFB (LOCF) (50 mg q.d., week 16, 24 weeks results): −1.91 | DAS28(CRP) mean CFB (LOCF) (50 mg q.d., week 20, 24 weeks results): −1.99 | DAS28(CRP) mean CFB (LOCF) (50 mg q.d., week 24, 24 weeks results): −1.98 | % patients reaching low disease activity and/or remission at week 12 (LOCF) (50 mg q.d., 12 weeks results): 24% | % patients reaching low disease activity at week 12 (LOCF) (50 mg q.d., 12 weeks results): 12% | % patients reaching remission at week 12 (LOCF) (50 mg q.d., 12 weeks results): 12% | % patients reaching low disease activity and/or remission at week 24 (LOCF) (50 mg q.d., 24 weeks results): 33% | % patients reaching low disease activity at week 24 (LOCF) (50 mg q.d., 24 weeks results): 12% | % patients reaching remission at week 24 (LOCF) (50 mg q.d., 24 weeks results): 21% | DAS28(CRP) mean CFB (LOCF) (50 mg q.d., week 8, 12 weeks results): −1.66 | DAS28(CRP) mean CFB (LOCF) (50 mg q.d., week 8, 24 weeks results): −1.66 | DAS28(CRP) mean CFB (LOCF) (100 mg q.d., week 1, 12 weeks results): −1.01 | DAS28(CRP) mean CFB (LOCF) (100 mg q.d., week 1, 24 weeks results): −1.00 | DAS28(CRP) mean CFB (LOCF) (100 mg q.d., week 2, 12 weeks results): −1.50 | DAS28(CRP) mean CFB (LOCF) (100 mg q.d., week 2, 24 weeks results): −1.51 | DAS28(CRP) mean CFB (LOCF) (100 mg q.d., week 4, 12 weeks results): −1.88 | DAS28(CRP) mean CFB (LOCF) (100 mg q.d., week 4, 24 weeks results): −1.89 | DAS28(CRP) mean CFB (LOCF) (100 mg q.d., week 8, 24 weeks results): −2.13 | DAS28(CRP) mean CFB (LOCF) (100 mg q.d., week 12, 12 weeks results): −2.21 | DAS28(CRP) mean CFB (LOCF) (100 mg q.d., week 12, 24 weeks results): −2.23 | DAS28(CRP) mean CFB (LOCF) (100 mg q.d., week 16, 24 weeks results): −2.51 | DAS28(CRP) mean CFB (LOCF) (100 mg q.d., week 20, 24 weeks results): −2.65 | DAS28(CRP) mean CFB (LOCF) (100 mg q.d., week 24, 24 weeks results): −2.70 | % patients reaching low disease activity and/or remission at week 12 (LOCF) (100 mg q.d., 12 weeks results): 34% | % patients reaching low disease activity at week 12 (LOCF) (100 mg q.d., 12 weeks results): 13% | % patients reaching remission at week 12 (LOCF) (100 mg q.d., 12 weeks results): 21% | % patients reaching low disease activity and/or remission at week 24 (LOCF) (100 mg q.d., 24 weeks results): 51% | % patients reaching low disease activity at week 24 (LOCF) (100 mg q.d., 24 weeks results): 14% | % patients reaching remission at week 24 (LOCF) (100 mg q.d., 24 weeks results): 36% | DAS28(CRP) mean CFB (LOCF) (100 mg q.d., week 8, 12 weeks results): −2.12 | DAS28(CRP) mean CFB (LOCF) (200 mg q.d., week 1, 12 weeks results): −1.17 | DAS28(CRP) mean CFB (LOCF) (200 mg q.d., week 1, 24 weeks results): −1.17 | DAS28(CRP) mean CFB (LOCF) (200 mg q.d., week 2, 12 weeks results): −1.52 | DAS28(CRP) mean CFB (LOCF) (200 mg q.d., week 2, 24 weeks results): −1.52 | DAS28(CRP) mean CFB (LOCF) (200 mg q.d., week 4, 12 weeks results): −1.92 | DAS28(CRP) mean CFB (LOCF) (200 mg q.d., week 4, 24 weeks results): −1.92 | DAS28(CRP) mean CFB (LOCF) (200 mg q.d., week 8, 24 weeks results): −2.31 | DAS28(CRP) mean CFB (LOCF) (200 mg q.d., week 12, 12 weeks results): −2.49 | DAS28(CRP) mean CFB (LOCF) (200 mg q.d., week 12, 24 weeks results): −2.47 | DAS28(CRP) mean CFB (LOCF) (200 mg q.d., week 16, 24 weeks results): −2.70 | DAS28(CRP) mean CFB (LOCF) (200 mg q.d., week 20, 24 weeks results): −2.86 | DAS28(CRP) mean CFB (LOCF) (200 mg q.d., week 24, 24 weeks results): −2.80 | % patients reaching low disease activity and/or remission at week 12 (LOCF) (200 mg q.d., 12 weeks results): 37% | % patients reaching low disease activity at week 12 (LOCF) (200 mg q.d., 12 weeks results): 15% | % patients reaching remission at week 12 (LOCF) (200 mg q.d., 12 weeks results): 22% | % patients reaching low disease activity and/or remission at week 24 (LOCF) (200 mg q.d., 24 weeks results): 51% | % patients reaching low disease activity at week 24 (LOCF) (200 mg q.d., 24 weeks results): 26% | % patients reaching remission at week 24 (LOCF) (200 mg q.d., 24 weeks results): 26% | DAS28(CRP) mean CFB (LOCF) (200 mg q.d., week 8, 12 weeks results): −2.30
